From patent publication US11332470B2, “CXCR4 inhibitors and uses thereof” (X4 Pharmaceuticals, Inc., priority 2016, dated 2022) come the findings set out here.

The target of one assay is T1, CXCR4 (U87.CXCR4 cells) (Homo sapiens, UniProt P61073).
T1 construct: expressed in transfected cells; host or cells: U87 (U87.CXCR4)
As to the kind of experiment: Intracellular CXCL-12-induced calcium mobilization assay (FLIPR). The following applies: CXCL-12 25-50 ng/mL, read-out: IC50 CXCL-12 Ca2+ flux U87.CXCR4+. Type of assay: cell-based. Put shortly: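 U87.CXCR4 cells were loaded with 4 μM Fluo-2 AM for 45 min at 37 °C in HBSS/20 mM HEPES/0.2% BSA, pH 7.4. Calcium flux induced by CXCL-12 (25-50 ng/mL) was monitored kinetically by FLIPR fluorescence at 37 °C.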
On the technique in general: Calcium assays in cells follow changes in intracellular calcium, usually with a dye or a luminescent sensor.

Assay [1] deals with T2, CXCR4 (Jurkat cells expressing CXCR4) (Homo sapiens, UniProt P61073).
T2 construct: Jurkat cells expressing CXCR4; endogenous in cells; host or cells: Jurkat
As to the kind of experiment: Chemokine (CXCL12-AF647) binding inhibition assay. The following applies: CXCL12-AF647 25 ng/mL, read-out: IC50 CXCL-12 binding Jurkat. The method, boiled down: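 Cells in HBSS, 20 mM HEPES, 0.2% BSA, pH 7.4, preincubated 15 min at room temperature with compound, then 25 ng/mL CXCL12-AF647 for 30 min. After washing and paraformaldehyde fixation, bound ligand read by flow cytometry; percent inhibition calculated from MFI relative to unlabeled and ligand-only controls.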

T1 sequence (P61073 whole entry): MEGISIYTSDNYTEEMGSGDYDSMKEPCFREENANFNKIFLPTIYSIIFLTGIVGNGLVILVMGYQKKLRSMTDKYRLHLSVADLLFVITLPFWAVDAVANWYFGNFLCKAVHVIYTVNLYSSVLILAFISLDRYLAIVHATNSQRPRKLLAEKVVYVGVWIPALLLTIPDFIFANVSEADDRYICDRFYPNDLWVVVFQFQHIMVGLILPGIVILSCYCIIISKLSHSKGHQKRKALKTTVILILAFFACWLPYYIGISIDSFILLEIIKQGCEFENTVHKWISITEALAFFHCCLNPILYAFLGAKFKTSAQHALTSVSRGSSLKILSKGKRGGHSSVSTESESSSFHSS
T2 sequence (P61073 whole entry): as above

Broadly, the IC50 is the concentration that inhibits the measured activity by half. As to `CN1CCN(c2c(CN3CCCC3c3ccccn3)nc3ccc(F)cn23)CC1` (stereo not drawn) [Compound I-63], the IC50 (at CXCR4 (U87.CXCR4 cells); in assay [1]) was 0.01 to 100 nM each time.
In the case of `CN1CCN(c2cccc3[nH]c(CN4CCCC4c4ncccc4Cl)nc23)CC1` (stereo not drawn) [Compound I-26], the IC50 at CXCR4 (U87.CXCR4 cells) lay within 100 to 1000 nM; in assay [1] it was 0.01 to 100 nM.
The like results for `CN1CCN(c2c(CN3CCCC3c3nccs3)nc3ccccn23)CC1` (stereo not drawn) [Compound I-70] were, in that order, 0.01 to 100 nM and 0.01 to 100 nM.
The corresponding values for `CN1CCN(c2c(CN3CCCC3c3ccccn3)nc3ccccn23)CC1` (stereo not drawn) [Compound I-41] are 0.01 to 100 nM and 0.01 to 100 nM.
The like results for `Cc1cccnc1C1CCCN1Cc1nc2cccc(N3CCN(C4CC4)CC3)c2[nH]1` (stereo not drawn) [Compound I-31] were, in that order, 100 to 1000 nM and 0.01 to 100 nM.
In the case of `Cc1cccnc1C1CCCN1Cc1cn2c(N3CCN(C)C4(CC4)C3)cccc2n1` (stereo not drawn) [Compound I-29], the 50% inhibitory concentration (IC50) (on CXCR4 (U87.CXCR4 cells); in assay [1]) was 100 to 1000 nM in each case.
